Experimental data as given in patent US20210215714A1, “COMPLEMENT ALTERNATIVE PATHWAY-ASSOCIATED NEPHROPATHY BIOMARKERS” (Achillion Pharmaceuticals, Inc., priority 2018, published 2021).
“Also recorded” adds a separate entry of the source.

System: Ba
Test: Phase 2a study: urinary Ba (MicroVue Ba Enzyme Immunoassay)
Format: in vivo, human
Details: for Urine Ba / Ba/ALB / Ba/Cr: 200 mg TID; for Ba/ALB GEOMEAN / Ba/ALB MEAN / Ba/Cr GEOMEAN / Ba/Cr MEAN / Urine Ba MEAN / Urine Ba GEOMEAN: patients A-F

CC(=O)c1nn(CC(=O)N2C[C@H](F)C[C@H]2C(=O)Nc2cccc(Br)n2)c2ccc(-c3cnc(C)nc3)cc12 [Compound 1, (2S,4R)-1-(2-(3-acetyl-5-(2-methylpyrimidin-5-yl)-1H-indazol-1-yl)acetyl)-N-(6-bromopyridin-2-yl)-4-fluoropyrrolidine-2-carboxamide]
Urine Ba (Patient D, Day 21 Taper): 18.6 ng/mL | Ba/ALB (Patient D, Follow-Up Day 24): 14.9 ng/mg | Ba/Cr (Patient D, Follow-Up Day 24): 4.2 µg/mmol | Urine Ba (Patient D, Follow-Up Day 24): 28.7 ng/mL | Ba/ALB (Patient D, Follow-Up Day 28): 10.8 ng/mg | Ba/Cr (Patient D, Follow-Up Day 28): 6.2 µg/mmol | Urine Ba (Patient D, Follow-Up Day 28): 30.0 ng/mL | Ba/ALB (Patient D, Follow-Up Day 49): 3.8 ng/mg | Ba/Cr (Patient D, Follow-Up Day 49): 2.4 µg/mmol | Urine Ba (Patient D, Follow-Up Day 49): 9.4 ng/mL | Ba/ALB (Patient D, Screen): 19.2 ng/mg | Ba/Cr (Patient D, Screen): 11.1 µg/mmol | Urine Ba (Patient D, Screen): 84.4 ng/mL | Ba/ALB (Patient E, Day 1/0 Hour): 33.5 ng/mg | Ba/Cr (Patient E, Day 1/0 Hour): 14.2 µg/mmol | Urine Ba (Patient E, Day 1/0 Hour): 252 ng/mL | Ba/ALB (Patient E, Day 4): 14.7 ng/mg | Ba/Cr (Patient E, Day 4): 6.2 µg/mmol | Urine Ba (Patient E, Day 4): 129 ng/mL | Ba/ALB (Patient E, Day 7/0 Hour): 17.3 ng/mg | Ba/Cr (Patient E, Day 7/0 Hour): 9.2 µg/mmol | Urine Ba (Patient E, Day 7/0 Hour): 142 ng/mL | Ba/ALB (Patient E, Day 10): 12.8 ng/mg | Ba/Cr (Patient E, Day 10): 8.0 µg/mmol | Urine Ba (Patient E, Day 10): 106 ng/mL | Ba/ALB (Patient E, Day 14): 6.9 ng/mg | Ba/Cr (Patient E, Day 14): 1.8 µg/mmol | Urine Ba (Patient E, Day 14): 41 ng/mL | Ba/ALB (Patient E, Day 15 Taper): 3.6 ng/mg | Ba/Cr (Patient E, Day 15 Taper): 1.2 µg/mmol | Urine Ba (Patient E, Day 15 Taper): 11 ng/mL | Ba/ALB (Patient E, Day 16 Taper): 7.2 ng/mg | Ba/Cr (Patient E, Day 16 Taper): 2.0 µg/mmol | Urine Ba (Patient E, Day 16 Taper): 20 ng/mL | Ba/ALB (Patient E, Day 17 Taper): 12.7 ng/mg | Ba/Cr (Patient E, Day 17 Taper): 6.0 µg/mmol | Urine Ba (Patient E, Day 17 Taper): 47 ng/mL | Ba/ALB (Patient E, Day 21 Taper): 21.6 ng/mg | Ba/Cr (Patient E, Day 21 Taper): 5.5 µg/mmol | Urine Ba (Patient E, Day 21 Taper): 42 ng/mL | Ba/ALB (Patient E, Follow-Up Day 24): 41.2 ng/mg | Ba/Cr (Patient E, Follow-Up Day 24): 12.5 µg/mmol | Urine Ba (Patient E, Follow-Up Day 24): 156 ng/mL | Ba/ALB (Patient E, Follow-Up Day 28): 46.1 ng/mg | Ba/Cr (Patient E, Follow-Up Day 28): 14.1 µg/mmol | Urine Ba (Patient E, Follow-Up Day 28): 234 ng/mL | Ba/ALB (Patient E, Follow-Up Day 49): 40.0 ng/mg | Ba/Cr (Patient E, Follow-Up Day 49): 13.1 µg/mmol | Urine Ba (Patient E, Follow-Up Day 49): 207 ng/mL | Ba/ALB (Patient F, Day 1/0 Hour): 25.9 ng/mg | Ba/Cr (Patient F, Day 1/0 Hour): 7.6 µg/mmol | Urine Ba (Patient F, Day 1/0 Hour): 74.9 ng/mL | Ba/ALB (Patient F, Day 4): 7.6 ng/mg | Ba/Cr (Patient F, Day 4): 1.2 µg/mmol | Urine Ba (Patient F, Day 4): 5.7 ng/mL | Ba/ALB (Patient F, Day 7/0 Hour): 5.7 ng/mg | Ba/Cr (Patient F, Day 7/0 Hour): 0.5 µg/mmol | Urine Ba (Patient F, Day 7/0 Hour): 2.1 ng/mL | Urine Ba (Patient F, Day 10): 2.1 ng/mL | Ba/ALB (Patient F, Day 14): 5.8 ng/mg | Ba/Cr (Patient F, Day 14): 1.1 µg/mmol | Urine Ba (Patient F, Day 14): 9.8 ng/mL | Ba/ALB (Patient F, Day 15 Taper): 0.6 ng/mg | Ba/Cr (Patient F, Day 15 Taper): 0.5 µg/mmol | Urine Ba (Patient F, Day 15 Taper): 2.8 ng/mL | Ba/ALB (Patient F, Day 16 Taper): 2.6 ng/mg | Ba/Cr (Patient F, Day 16 Taper): 0.6 µg/mmol | Urine Ba (Patient F, Day 16 Taper): 2.2 ng/mL | Ba/ALB (Patient F, Day 17 Taper): 1.6 ng/mg | Ba/Cr (Patient F, Day 17 Taper): 0.7 µg/mmol | Urine Ba (Patient F, Day 17 Taper): 6.9 ng/mL | Ba/ALB (Patient F, Day 21 Taper): 1.5 ng/mg | Ba/Cr (Patient F, Day 21 Taper): 0.5 µg/mmol | Urine Ba (Patient F, Day 21 Taper): 6.6 ng/mL | Ba/ALB (Patient F, Follow-Up Day 24): 1.5 ng/mg | Ba/Cr (Patient F, Follow-Up Day 24): 0.4 µg/mmol | Urine Ba (Patient F, Follow-Up Day 24): 2.2 ng/mL | Ba/ALB (Patient F, Follow-Up Day 28): 2.5 ng/mg | Ba/Cr (Patient F, Follow-Up Day 28): 0.6 µg/mmol | Urine Ba (Patient F, Follow-Up Day 28): 2.8 ng/mL | Ba/Cr (Patient F, Follow-Up Day 49): 8.2 µg/mmol | Urine Ba (Patient F, Follow-Up Day 49): 44.4 ng/mL | Ba/ALB GEOMEAN (Day 1/0 Hour): 22.6 ng/mg | Ba/ALB MEAN (Day 1/0 Hour): 53.4 ng/mg | Ba/Cr GEOMEAN (Day 1/0 Hour): 5.7 µg/mmol | Ba/Cr MEAN (Day 1/0 Hour): 26.7 µg/mmol | Urine Ba MEAN (Day 1/0 Hour): 197 ng/mL | Ba/ALB GEOMEAN (Day 4): 7.8 ng/mg | Ba/ALB MEAN (Day 4): 13.8 ng/mg | Ba/Cr GEOMEAN (Day 4): 1.4 µg/mmol | Ba/Cr MEAN (Day 4): 3.8 µg/mmol | Urine Ba GEOMEAN (Day 4): 9.1 ng/mL | Urine Ba MEAN (Day 4): 52 ng/mL | Ba/ALB GEOMEAN (Day 7/0 Hour): 8.9 ng/mg | Ba/ALB MEAN (Day 7/0 Hour): 13.4 ng/mg | Ba/Cr GEOMEAN (Day 7/0 Hour): 1.5 µg/mmol | Ba/Cr MEAN (Day 7/0 Hour): 4.0 µg/mmol | Urine Ba GEOMEAN (Day 7/0 Hour): 7.9 ng/mL | Urine Ba MEAN (Day 7/0 Hour): 51 ng/mL | Urine Ba GEOMEAN (Day 10): 5.0 ng/mL | Urine Ba MEAN (Day 10): 28 ng/mL | Ba/ALB GEOMEAN (Day 15 Taper): 4.9 ng/mg | Ba/ALB MEAN (Day 15 Taper): 13.4 ng/mg | Ba/Cr GEOMEAN (Day 15 Taper): 1.2 µg/mmol | Ba/Cr MEAN (Day 15 Taper): 4.1 µg/mmol | Urine Ba GEOMEAN (Day 15 Taper): 6.8 ng/mL | Urine Ba MEAN (Day 15 Taper): 41 ng/mL | Ba/ALB GEOMEAN (Day 17 Taper): 6.9 ng/mg | Ba/ALB MEAN (Day 17 Taper): 15.4 ng/mg | Ba/Cr GEOMEAN (Day 17 Taper): 1.6 µg/mmol | Ba/Cr MEAN (Day 17 Taper): 4.2 µg/mmol | Urine Ba GEOMEAN (Day 17 Taper): 9.5 ng/mL | Urine Ba MEAN (Day 17 Taper): 41 ng/mL | Ba/ALB MEAN (Day 21 Taper): 24.5 ng/mg | Ba/Cr GEOMEAN (Day 21 Taper): 2.6 µg/mmol | Ba/Cr MEAN (Day 21 Taper): 6.0 µg/mmol | Urine Ba GEOMEAN (Day 21 Taper): 17.2 ng/mL | Urine Ba MEAN (Day 21 Taper): 46 ng/mL | Ba/ALB MEAN (Follow-Up Day 24): 38.5 ng/mg | Ba/Cr GEOMEAN (Follow-Up Day 24): 3.0 µg/mmol | Ba/Cr MEAN (Follow-Up Day 24): 11.6 µg/mmol | Urine Ba GEOMEAN (Follow-Up Day 24): 18.4 ng/mL | Urine Ba MEAN (Follow-Up Day 24): 92 ng/mL | Ba/ALB GEOMEAN (Follow-Up Day 28): 17.4 ng/mg | Ba/ALB MEAN (Follow-Up Day 28): 34.3 ng/mg | Ba/Cr GEOMEAN (Follow-Up Day 28): 3.8 µg/mmol | Ba/Cr MEAN (Follow-Up Day 28): 9.3 µg/mmol | Urine Ba GEOMEAN (Follow-Up Day 28): 24.5 ng/mL | Urine Ba MEAN (Follow-Up Day 28): 90 ng/mL | Ba/ALB GEOMEAN (Follow-Up Day 49): 20.7 ng/mg | Ba/ALB MEAN (Follow-Up Day 49): 143.0 ng/mg | Ba/Cr GEOMEAN (Follow-Up Day 49): 3.9 µg/mmol | Ba/Cr MEAN (Follow-Up Day 49): 22.6 µg/mmol | Urine Ba GEOMEAN (Follow-Up Day 49): 27.2 ng/mL | Urine Ba MEAN (Follow-Up Day 49): 334 ng/mL | Urinary Ba levels (two-week treatment): reduced significantly; also recorded: reduced in all patients | Urinary Ba levels normalized to urinary creatinine or albumin (two-week treatment): reduced significantly
